{"source": "paper PMC12802961", "about": "(Journal of Antimicrobial Chemotherapy, 2025)", "key": {"K. pneumoniae 59": {"test_system": "K. pneumoniae 59", "assay": "Neutropenic murine thigh infection model", "type": "in vivo, Klebsiella pneumoniae", "experimental": "(§1) All dosing regimens were performed in at least two animals per dosing regimen.\n(§2) At t = 0 h, 2 h after infection, two mice were humanely euthanized to determine the initial number of cfu/thigh just before treatment. […] Subsequently, thighs were homogenized using the Ultra-Turrax homogenizer (IKA Labortechnik, Germany). For each thigh 10-fold dilution series were prepared and 3 × 10 µL per dilution were plated (Chromagar, bioMérieux, NL). The following day, colonies were counted and the number of cfu/thigh was calculated.\n(§3) Free drug concentrations were used in all calculations."}, "E. coli 52": {"test_system": "E. coli 52", "assay": "Checkerboard broth microdilution MIC of cefepime alone and with taniborbactam", "type": "cell-based, Escherichia coli", "source_text": "(§4) Four previously well-characterized cefepime-resistant isolates, namely one ESBL-producing E. coli, one ESBL-producing K. pneumoniae and two P. aeruginosa (one VIM- and one AmpC constitutively -producing), were used."}, "P. aeruginosa 132 [1]": {"test_system": "P. aeruginosa 132", "assay": "Checkerboard broth microdilution MIC of cefepime alone and with taniborbactam", "type": "cell-based, Pseudomonas aeruginosa", "source_text": "as §4"}, "P. aeruginosa 106 [2]": {"test_system": "P. aeruginosa 106", "assay": "Checkerboard broth microdilution MIC of cefepime alone and with taniborbactam", "type": "cell-based, Pseudomonas aeruginosa", "source_text": "as §4"}, "P. aeruginosa 132 [3]": {"test_system": "P. aeruginosa 132", "assay": "Neutropenic murine thigh infection model", "type": "in vivo, Pseudomonas aeruginosa", "experimental": "as §1, §2, §3"}, "P. aeruginosa 106 [4]": {"test_system": "P. aeruginosa 106", "assay": "Neutropenic murine thigh infection model", "type": "in vivo, Pseudomonas aeruginosa", "experimental": "as §1, §2, §3"}, "[5]": {"test_system": "β-lactamase–producing Enterobacterales and Pseudomonas aeruginosa", "assay": "Neutropenic murine thigh infection model, all isolates together", "type": "in vivo", "details": "against Enterobacterales and AmpC-producing P. aeruginosa", "experimental": "[…]. […] […]. All dosing regimens were performed in at least two animals per dosing regimen.\nAt t = 0 h, 2 h after infection, two mice were humanely euthanized to determine the initial number of cfu/thigh just before treatment. All other animals were euthanized at t = 24 h unless the welfare of the animals indicated earlier termination, following animal welfare regulations. Thighs were taken and moved to a pre-cooled 10 mL plastic tube (Transport Tube, Omnilabo, NL) containing 2 mL PBS (NaCl 8.00 g/L, Na2HPO4 * 2H2O 1.44 g/L, KH2PO4 0.26 g/L, pH 7.2–7.4). Subsequently, thighs were homogenized using the Ultra-Turrax homogenizer (IKA Labortechnik, Germany). For each thigh 10-fold dilution series were prepared and 3 × 10 µL per dilution were plated (Chromagar, bioMérieux, NL). The following day, colonies were counted and the number of cfu/thigh was calculated. The drug effect was then determined as the difference between the log10cfu/thigh values at t = 24 h and t = 0 h (mean value of two mice) expressed as Δlog10cfu, i.e. positive result for growth, zero for static effect and negative for reduction of inoculum (killing).\n. […] Free drug concentrations were used in all calculations. […]"}, "[6]": {"details": "cefepime monotherapy q2h, extrapolated"}, "[7]": {"details": "cefepime monotherapy q2h s.c. 24 h"}, "[8]": {"details": "cefepime monotherapy, extrapolated"}}}
{"smiles": "CO/N=C(\\C(=O)N[C@@H]1C(=O)N2C(C(=O)[O-])=C(C[N+]3(C)CCCC3)CS[C@H]12)c1csc(N)n1", "note": "[cefepime, Cefepime]", "values": [{"measurement": "Stasis: q2h dose", "setting": "K. pneumoniae 59; cefepime monotherapy", "value": 117.8, "unit": "mg/kg"}, {"measurement": "Stasis: %ƒT > MIC", "setting": "K. pneumoniae 59; cefepime monotherapy q2h", "value": 0.0, "unit": "%"}, {"measurement": "1 log10 kill: %ƒT > MIC", "setting": "K. pneumoniae 59; cefepime monotherapy q2h, belongs to extrapolated dose", "value": 15.9, "unit": "%"}, {"measurement": "1 log10 kill: Total daily dose, mg/kg", "setting": "K. pneumoniae 59; [6]", "value": "(4371.3) mg/kg"}, {"measurement": "Stasis: Total daily dose", "setting": "K. pneumoniae 59; [7]", "value": 1413.4, "unit": "mg/kg"}, {"measurement": "1 log10 kill: q2h dose, mg/kg", "setting": "K. pneumoniae 59; [8]", "value": "(364.0) mg/kg"}, {"measurement": "Cefepime %fT > potMIC", "setting": "K. pneumoniae 59; cefepime q2h 4 mg/kg, potMIC 0.5 mg/L (with 4 mg/L taniborbactam)", "value": 69.30, "unit": "%"}, {"measurement": "Cefepime MIC at taniborbactam 0.03 mg/L", "setting": "E. coli 52; E. coli 52, +taniborbactam 0.03 mg/L", "value": 0.5, "unit": "mg/L"}, {"measurement": "Cefepime MIC at taniborbactam 0.06 mg/L", "setting": "E. coli 52; E. coli 52, +taniborbactam 0.06 mg/L", "value": 0.5, "unit": "mg/L"}, {"measurement": "Cefepime MIC at taniborbactam 0.125 mg/L", "setting": "E. coli 52; E. coli 52, +taniborbactam 0.125 mg/L", "value": 0.25, "unit": "mg/L"}, {"measurement": "Cefepime MIC at taniborbactam 0.25 mg/L", "setting": "E. coli 52; E. coli 52, +taniborbactam 0.25 mg/L", "value": 0.125, "unit": "mg/L"}, {"measurement": "Cefepime MIC at taniborbactam 0.5 mg/L", "setting": "E. coli 52; E. coli 52, +taniborbactam 0.5 mg/L", "value": 0.06, "unit": "mg/L"}, {"measurement": "Cefepime MIC at taniborbactam 1 mg/L", "setting": "E. coli 52; E. coli 52, +taniborbactam 1 mg/L", "value": 0.125, "unit": "mg/L"}, {"measurement": "Cefepime MIC at taniborbactam 2 mg/L", "setting": "E. coli 52; E. coli 52, +taniborbactam 2 mg/L", "value": 0.06, "unit": "mg/L"}, {"measurement": "Cefepime MIC at taniborbactam 4 mg/L (potMIC)", "setting": "E. coli 52; E. coli 52, +taniborbactam 4 mg/L", "value": 0.06, "unit": "mg/L"}, {"measurement": "MIC", "setting": "E. coli 52; Escherichia coli, 52, read-out: Cefepime MIC (mg/L) alone", "value": 32, "unit": "mg/L"}, {"measurement": "Cefepime MIC at taniborbactam 0.03 mg/L", "setting": "P. aeruginosa 132 [1]; P. aeruginosa 132, +taniborbactam 0.03 mg/L", "value": 16, "unit": "mg/L"}, {"measurement": "Cefepime MIC at taniborbactam 0.06 mg/L", "setting": "P. aeruginosa 132 [1]; P. aeruginosa 132, +taniborbactam 0.06 mg/L", "value": 16, "unit": "mg/L"}, {"measurement": "Cefepime MIC at taniborbactam 0.125 mg/L", "setting": "P. aeruginosa 132 [1]; P. aeruginosa 132, +taniborbactam 0.125 mg/L", "value": 8, "unit": "mg/L"}, {"measurement": "Cefepime MIC at taniborbactam 0.25 mg/L", "setting": "P. aeruginosa 132 [1]; P. aeruginosa 132, +taniborbactam 0.25 mg/L", "value": 4, "unit": "mg/L"}, {"measurement": "Cefepime MIC at taniborbactam 0.5 mg/L", "setting": "P. aeruginosa 132 [1]; P. aeruginosa 132, +taniborbactam 0.5 mg/L", "value": 2, "unit": "mg/L"}, {"measurement": "Cefepime MIC at taniborbactam 1 mg/L", "setting": "P. aeruginosa 132 [1]; P. aeruginosa 132, +taniborbactam 1 mg/L", "value": 1, "unit": "mg/L"}, {"measurement": "Cefepime MIC at taniborbactam 2 mg/L", "setting": "P. aeruginosa 132 [1]; P. aeruginosa 132, +taniborbactam 2 mg/L", "value": 1, "unit": "mg/L"}, {"measurement": "Cefepime MIC at taniborbactam 4 mg/L (potMIC)", "setting": "P. aeruginosa 132 [1]; P. aeruginosa 132, +taniborbactam 4 mg/L", "value": 1, "unit": "mg/L"}, {"measurement": "MIC", "setting": "P. aeruginosa 132 [1]; Pseudomonas aeruginosa, 132, read-out: Cefepime MIC (mg/L) alone", "value": 16, "unit": "mg/L"}, {"measurement": "Cefepime MIC at taniborbactam 0.03 mg/L", "setting": "P. aeruginosa 106 [2]; P. aeruginosa 106, +taniborbactam 0.03 mg/L", "value": 32, "unit": "mg/L"}, {"measurement": "Cefepime MIC at taniborbactam 0.06 mg/L", "setting": "P. aeruginosa 106 [2]; P. aeruginosa 106, +taniborbactam 0.06 mg/L", "value": 32, "unit": "mg/L"}, {"measurement": "Cefepime MIC at taniborbactam 0.125 mg/L", "setting": "P. aeruginosa 106 [2]; P. aeruginosa 106, +taniborbactam 0.125 mg/L", "value": 32, "unit": "mg/L"}, {"measurement": "Cefepime MIC at taniborbactam 0.25 mg/L", "setting": "P. aeruginosa 106 [2]; P. aeruginosa 106, +taniborbactam 0.25 mg/L", "value": 16, "unit": "mg/L"}, {"measurement": "Cefepime MIC at taniborbactam 0.5 mg/L", "setting": "P. aeruginosa 106 [2]; P. aeruginosa 106, +taniborbactam 0.5 mg/L", "value": 16, "unit": "mg/L"}, {"measurement": "Cefepime MIC at taniborbactam 1 mg/L", "setting": "P. aeruginosa 106 [2]; P. aeruginosa 106, +taniborbactam 1 mg/L", "value": 16, "unit": "mg/L"}, {"measurement": "Cefepime MIC at taniborbactam 2 mg/L", "setting": "P. aeruginosa 106 [2]; P. aeruginosa 106, +taniborbactam 2 mg/L", "value": 8, "unit": "mg/L"}, {"measurement": "Cefepime MIC at taniborbactam 4 mg/L (potMIC)", "setting": "P. aeruginosa 106 [2]; P. aeruginosa 106, +taniborbactam 4 mg/L", "value": 4, "unit": "mg/L"}, {"measurement": "MIC", "setting": "P. aeruginosa 106 [2]; Pseudomonas aeruginosa, 106, read-out: Cefepime MIC (mg/L) alone", "value": 32, "unit": "mg/L"}, {"measurement": "1 log10 kill: q2h dose, mg/kg", "setting": "P. aeruginosa 132 [3]; cefepime monotherapy", "value": 59.9, "unit": "mg/kg"}, {"measurement": "1 log10 kill: %ƒT > MIC", "setting": "P. aeruginosa 132 [3]; cefepime monotherapy q2h", "value": 32.4, "unit": "%"}, {"measurement": "1 log10 kill: Total daily dose, mg/kg", "setting": "P. aeruginosa 132 [3]; cefepime monotherapy q2h", "value": 718.3, "unit": "mg/kg"}, {"measurement": "Stasis: %ƒT > MIC", "setting": "P. aeruginosa 132 [3]; cefepime monotherapy q2h", "value": 8.9, "unit": "%"}, {"measurement": "Stasis: Total daily dose", "setting": "P. aeruginosa 132 [3]; [7]", "value": 180.8, "unit": "mg/kg"}, {"measurement": "Cefepime %fT > potMIC", "setting": "P. aeruginosa 132 [3]; cefepime q2h 8 mg/kg, potMIC 1 mg/L (with 4 mg/L taniborbactam)", "value": 46.10, "unit": "%"}, {"measurement": "1 log10 kill: %ƒT > MIC", "setting": "P. aeruginosa 106 [4]; [6]", "value": "(47.4) %"}, {"measurement": "1 log10 kill: Total daily dose, mg/kg", "setting": "P. aeruginosa 106 [4]; [6]", "value": "(3484.4) mg/kg"}, {"measurement": "Stasis: %ƒT > MIC", "setting": "P. aeruginosa 106 [4]; [6]", "value": "(36.9) %"}, {"measurement": "Stasis: Total daily dose, mg/kg", "setting": "P. aeruginosa 106 [4]; cefepime monotherapy q2h s.c. 24 h, extrapolated", "value": "(1901.6) mg/kg"}, {"measurement": "1 log10 kill: q2h dose, mg/kg", "setting": "P. aeruginosa 106 [4]; [8]", "value": "(290.4) mg/kg"}, {"measurement": "Stasis: q2h dose, mg/kg", "setting": "P. aeruginosa 106 [4]; [8]", "value": "(158.5) mg/kg"}, {"measurement": "Cefepime %fT > MIC", "setting": "P. aeruginosa 106 [4]; cefepime q2h 64 mg/kg, MIC 32 mg/L", "value": 22.10, "unit": "%"}, {"measurement": "Effect of cefepime alone", "setting": "[5]", "value": "marginally reached stasis"}]}
